Experimental data: patent publication US12698324B2, “Cystic lymphangioma treatment drug” (National University Corporation University of Toyama, priority 2020, dated 2026)

System: cystic lymphangioma of PDGFRβ knockout mice
Assay: Therapy experiment in cystic lymphangioma of PDGFRβ knockout mice (diameter of LYVE1-positive lymph vessels)
Format: in vivo, mouse
Conditions: intraperitoneal three times a week (Erlotinib 50 mg/kg; antibody 5 μg/body), compared with the group of PDGFRβ knockout mice without treatment
Method: To PDGFRβ knockout mice, a neutralizing antibody against amphiregulin (AF989, R&D Systems Inc.) and Erlotinib having EGFR inhibitory activity (Selleck Biotech) were administered for the purpose of treating cystic lymphangioma. The neutralizing antibody against amphiregulin was dissolved in PBS at 25 μg/mL and administered intraperitoneally at 5 μg/body three times a week. Erlotinib was dissolved in DMSO at 50 mg/mL and administered intraperitoneally at 50 mg/kg three times a week. A group of PDGFRβ knockout mice without treatment and a control group of mice in which PDGFRβ was not knocked out were also prepared.
The tissues of PDGFRβ knockout mice were fixed with paraformaldehyde (PFA). Paraffin sections were prepared using fixed samples. The tissue sections were washed with a buffer and antigen-retrieved by heating in a microwave oven for 5 minutes using a commercial retrieval solution. Next, each sample was washed with a buffer solution and the tissues or the cells were subjected to a commercial blocking solution (room temperature, one hour).
Next, each sample was washed with a buffer and subjected to an anti-LYVE1 antibody (Abcam, a primary antibody) at optimum concentration (4° C., overnight). […] The obtained sample was observed and photographed with a fluorescence microscope.
The diameter of each lymph vessel was measured with ImageJ imaging software based on the photographed images. […]

SMILES: C#Cc1cccc(Nc2ncnc3cc(OCCOC)c(OCCOC)cc23)c1 [Erlotinib]
- diameter of dilated lymph vessels: significantly reduced
